Measured values taken from patent US11549123B2, “Plant EPSP synthases and methods of use” (PIONEER HI-BRED INTERNATIONAL, INC., priority 2015, dated 2023).

How the values were obtained:
[1] = target: T1, Zea mays EPSPS variant Zm-H6 (868-H6) with A76V (H6-A76V) (Zea mays, UniProt O24566, A1R/A3W/A415G/A71Q/A75V/D401G/E301S/E390G/G101A/I207L/K83R/L97C/T278A/T360S/T440Q/V437R); test: Substrate saturation kinetic analysis with glyphosate, H6-A76V; assay type: biochemical
T1 sequence (O24566 with tags, fused parts or gaps A1R/A3W/A71Q/A75V/K83R/L97C/G101A/I207L/T278A/E301S/T360S/E390G/D401G/A415G/V437R/T440Q): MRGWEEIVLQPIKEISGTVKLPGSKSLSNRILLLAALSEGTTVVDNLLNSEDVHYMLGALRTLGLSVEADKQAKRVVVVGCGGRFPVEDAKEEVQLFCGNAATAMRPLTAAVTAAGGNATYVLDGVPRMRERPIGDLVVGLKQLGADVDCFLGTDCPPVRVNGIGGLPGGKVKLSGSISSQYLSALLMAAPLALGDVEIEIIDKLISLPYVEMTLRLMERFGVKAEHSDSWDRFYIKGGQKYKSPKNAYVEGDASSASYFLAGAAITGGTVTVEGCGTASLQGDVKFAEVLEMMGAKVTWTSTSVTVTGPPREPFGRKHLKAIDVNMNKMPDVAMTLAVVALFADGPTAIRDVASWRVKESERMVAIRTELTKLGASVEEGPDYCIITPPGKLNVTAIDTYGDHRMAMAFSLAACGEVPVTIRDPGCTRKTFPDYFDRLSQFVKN

[2] = target: T2, Zea mays EPSPS variant Zm-T103I (Zea mays, UniProt O24566, T102I); test: Substrate saturation kinetic analysis with glyphosate, Zm-T103I; assay type: biochemical
T2 construct: native maize plus T103I; E. coli BL21(DE3), Ni-NTA purified
T2 sequence (O24566 with tags, fused parts or gaps T102I): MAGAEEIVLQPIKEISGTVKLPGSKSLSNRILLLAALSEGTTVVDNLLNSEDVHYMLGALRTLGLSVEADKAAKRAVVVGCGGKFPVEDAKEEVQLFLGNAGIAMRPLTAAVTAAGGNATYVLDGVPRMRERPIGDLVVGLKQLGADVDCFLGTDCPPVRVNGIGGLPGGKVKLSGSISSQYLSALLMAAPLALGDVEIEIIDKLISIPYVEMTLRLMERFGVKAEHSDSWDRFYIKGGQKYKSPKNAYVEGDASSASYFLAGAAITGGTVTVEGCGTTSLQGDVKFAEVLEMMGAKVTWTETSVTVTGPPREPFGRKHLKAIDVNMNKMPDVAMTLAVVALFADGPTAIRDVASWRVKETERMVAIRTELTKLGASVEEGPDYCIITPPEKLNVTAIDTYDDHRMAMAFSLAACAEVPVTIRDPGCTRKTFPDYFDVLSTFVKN

[3] = target: Zea mays EPSPS variant WT-FS-D (101S 107L 302S 338S) (Zea mays, UniProt O24566, A100S/A337S/E301S/P106L); test: EPSPS substrate saturation kinetics, WT-FS-D; assay type: biochemical
Sequence of Zea mays EPSPS variant WT-FS-D (101S 107L 302S 338S) (O24566 entry or part of it A100S/P106L/E301S/A337S): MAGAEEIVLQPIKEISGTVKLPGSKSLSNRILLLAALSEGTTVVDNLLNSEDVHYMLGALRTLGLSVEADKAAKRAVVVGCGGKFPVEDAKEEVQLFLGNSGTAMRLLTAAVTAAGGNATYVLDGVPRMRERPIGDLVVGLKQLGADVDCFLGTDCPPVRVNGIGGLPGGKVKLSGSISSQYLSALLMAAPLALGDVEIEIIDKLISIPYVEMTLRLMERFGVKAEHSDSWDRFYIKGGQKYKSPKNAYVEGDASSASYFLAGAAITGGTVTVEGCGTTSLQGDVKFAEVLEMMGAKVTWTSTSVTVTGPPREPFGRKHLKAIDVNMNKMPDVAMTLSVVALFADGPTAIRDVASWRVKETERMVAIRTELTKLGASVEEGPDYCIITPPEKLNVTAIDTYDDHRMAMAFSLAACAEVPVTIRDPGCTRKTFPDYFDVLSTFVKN
Procedure: EPSPS activity was determined by quantifying the phosphate generated from the EPSPS reaction. Release of inorganic phosphate was coupled to reaction with 2-amino-6-mercapto-7-methylpurine ribonucleoside, catalyzed by purine-nucleoside phosphorylase (M R Webb, Proc. Natl. Acad. Sci. 89:4884-4887, 1992). The absorbance change that occurs was monitored at 360 nm, where the extinction is 11,200 M^−1 cm^−1, with a Spectramax plate reader (Molecular Devices). To determine kinetic parameters, the varied substrate was present at seven concentrations (the eighth being the blank, containing no substrate) ranging from 4 to 400 uM and the unvaried substrate present at saturation. […] Reactions were monitored with a Spectramax plate reader. […] KI was then calculated from the following form of the Michaelis-Menten equation for competitive inhibition: KI=KM[I]/(KM app−KM) KM approximates the dissociation constant of the enzyme-substrate complex while kcat is the rate of conversion of substrate to product when the substrate concentration is saturating. kcat/KM is a widely accepted parameter for catalytic efficiency when substrate concentration is low (˜KM). […] The parameter kcat/KM×KI is used to quantify both catalytic efficiency and insensitivity and thus the overall fitness of the enzyme. […]

[4] = tested on: Arabidopsis thaliana Col-0; test: Glyphosate spray (Touchdown) tolerance of Arabidopsis transformed with maize EPSPS constructs; assay type: in vivo

Q: With `O=C(O)CNCP(=O)(O)O` [glyphosate, N-phosphonomethylglycine] as the compound, how does the Ki [1] read?
A: The Ki was 538 µM.

Q: And the “(kcat/KM)*KI” value ([1]; substrate saturation, H6-A76V)?
A: Its value is 2490.

Q: And the Ki [2]?
A: The Ki was 53 µM.

Q: What about the “(kcat/KM)*KI” value ([2]; substrate saturation, Zm-T103I) of the same compound?
A: The value was 99.

Q: And the Ki [3]?
A: Its Ki is 3.81 µM.

Q: And the “(kcat/KM)*KI” value ([3]; PEP as substrate, glyphosate as inhibitor)?
A: Its value is 346.

Q: What about the “plant injury and growth inhibition compared to unsprayed controls” value ([4]; plants transformed with UbiQ10 promoter and H6 variant) of the same compound?
A: The value was “no visible injury or growth inhibition”.

Q: And the growth after treatment ([4]; untransformed plants, 1.26 kg/Ha spray)?
A: Its growth after treatment is “did not grow at all”.

Q: And the plant injury ([4]; untransformed plants, 1.26 kg/Ha spray, by 10 days)?
A: Its plant injury is “chlorosis and imminent necrosis”.
